In ChEMBL document CHEMBL1156391, “Screening of triterpenoids isolated from Phyllanthus flexuosus for DNA topoisomerase inhibitory activity” (J Nat Prod, 2001) one finds Activity, IC50 and inhibition data, which are given here for six compounds.

pIC50: −log10 of the molar value. Calls of active or inactive are those of the source. The calls are words filed in the database; no cut-off is given here.

The target of test [1] is T1, DNA topoisomerase 2-alpha (Homo sapiens, UniProt P11388). The test is described as follows: Inhibition of 1 unit human topoisomerase 2alpha catalytic activity assessed as relaxation of 198 ng supercoiled pBR322 DNA at 100 uM by agarose gel electrophoresis.
The target of test [2] is T2, DNA topoisomerase 1 (Homo sapiens) (UniProt P11387).
T2 sequence (whole entry): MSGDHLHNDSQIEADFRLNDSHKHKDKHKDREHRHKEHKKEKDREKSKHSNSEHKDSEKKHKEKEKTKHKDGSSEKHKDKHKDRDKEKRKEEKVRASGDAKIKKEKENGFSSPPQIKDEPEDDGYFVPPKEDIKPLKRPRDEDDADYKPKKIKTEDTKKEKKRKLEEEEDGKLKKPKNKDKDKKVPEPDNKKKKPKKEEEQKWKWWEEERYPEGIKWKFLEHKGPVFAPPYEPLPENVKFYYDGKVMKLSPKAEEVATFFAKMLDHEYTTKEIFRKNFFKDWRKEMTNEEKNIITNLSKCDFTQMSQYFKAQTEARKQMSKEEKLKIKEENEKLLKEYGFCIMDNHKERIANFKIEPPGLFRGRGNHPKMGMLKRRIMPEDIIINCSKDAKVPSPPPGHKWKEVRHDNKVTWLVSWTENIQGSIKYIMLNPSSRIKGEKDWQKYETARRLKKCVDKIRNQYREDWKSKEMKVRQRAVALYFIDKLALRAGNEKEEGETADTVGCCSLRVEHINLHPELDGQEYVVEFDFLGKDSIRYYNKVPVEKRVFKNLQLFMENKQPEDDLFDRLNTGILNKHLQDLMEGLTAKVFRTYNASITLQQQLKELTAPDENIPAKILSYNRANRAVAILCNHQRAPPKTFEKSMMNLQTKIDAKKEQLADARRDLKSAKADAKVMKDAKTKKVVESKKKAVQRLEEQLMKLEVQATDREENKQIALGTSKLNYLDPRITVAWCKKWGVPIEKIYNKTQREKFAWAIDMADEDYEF
Put plainly: Inhibition of human topoisomerase 1 assessed as relaxation of supercoiled pBR322 DNA up to 200 uM by agarose gel electrophoresis.

For test [3], the target named is T1, DNA topoisomerase 2-alpha. Put plainly: Inhibition of human 1 unit topoisomerase 2alpha catalytic activity assessed as relaxation of 198 ng supercoiled pBR322 DNA by agarose gel electrophoresis.
Test [4] concerns the target T1, DNA topoisomerase 2-alpha. The test is described as follows: Inhibition of 1 unit human topoisomerase 2alpha catalytic activity assessed as relaxation of 198 ng supercoiled pBR322 DNA at 200 uM by agarose gel electrophoresis.

T1 sequence (P11388 whole entry): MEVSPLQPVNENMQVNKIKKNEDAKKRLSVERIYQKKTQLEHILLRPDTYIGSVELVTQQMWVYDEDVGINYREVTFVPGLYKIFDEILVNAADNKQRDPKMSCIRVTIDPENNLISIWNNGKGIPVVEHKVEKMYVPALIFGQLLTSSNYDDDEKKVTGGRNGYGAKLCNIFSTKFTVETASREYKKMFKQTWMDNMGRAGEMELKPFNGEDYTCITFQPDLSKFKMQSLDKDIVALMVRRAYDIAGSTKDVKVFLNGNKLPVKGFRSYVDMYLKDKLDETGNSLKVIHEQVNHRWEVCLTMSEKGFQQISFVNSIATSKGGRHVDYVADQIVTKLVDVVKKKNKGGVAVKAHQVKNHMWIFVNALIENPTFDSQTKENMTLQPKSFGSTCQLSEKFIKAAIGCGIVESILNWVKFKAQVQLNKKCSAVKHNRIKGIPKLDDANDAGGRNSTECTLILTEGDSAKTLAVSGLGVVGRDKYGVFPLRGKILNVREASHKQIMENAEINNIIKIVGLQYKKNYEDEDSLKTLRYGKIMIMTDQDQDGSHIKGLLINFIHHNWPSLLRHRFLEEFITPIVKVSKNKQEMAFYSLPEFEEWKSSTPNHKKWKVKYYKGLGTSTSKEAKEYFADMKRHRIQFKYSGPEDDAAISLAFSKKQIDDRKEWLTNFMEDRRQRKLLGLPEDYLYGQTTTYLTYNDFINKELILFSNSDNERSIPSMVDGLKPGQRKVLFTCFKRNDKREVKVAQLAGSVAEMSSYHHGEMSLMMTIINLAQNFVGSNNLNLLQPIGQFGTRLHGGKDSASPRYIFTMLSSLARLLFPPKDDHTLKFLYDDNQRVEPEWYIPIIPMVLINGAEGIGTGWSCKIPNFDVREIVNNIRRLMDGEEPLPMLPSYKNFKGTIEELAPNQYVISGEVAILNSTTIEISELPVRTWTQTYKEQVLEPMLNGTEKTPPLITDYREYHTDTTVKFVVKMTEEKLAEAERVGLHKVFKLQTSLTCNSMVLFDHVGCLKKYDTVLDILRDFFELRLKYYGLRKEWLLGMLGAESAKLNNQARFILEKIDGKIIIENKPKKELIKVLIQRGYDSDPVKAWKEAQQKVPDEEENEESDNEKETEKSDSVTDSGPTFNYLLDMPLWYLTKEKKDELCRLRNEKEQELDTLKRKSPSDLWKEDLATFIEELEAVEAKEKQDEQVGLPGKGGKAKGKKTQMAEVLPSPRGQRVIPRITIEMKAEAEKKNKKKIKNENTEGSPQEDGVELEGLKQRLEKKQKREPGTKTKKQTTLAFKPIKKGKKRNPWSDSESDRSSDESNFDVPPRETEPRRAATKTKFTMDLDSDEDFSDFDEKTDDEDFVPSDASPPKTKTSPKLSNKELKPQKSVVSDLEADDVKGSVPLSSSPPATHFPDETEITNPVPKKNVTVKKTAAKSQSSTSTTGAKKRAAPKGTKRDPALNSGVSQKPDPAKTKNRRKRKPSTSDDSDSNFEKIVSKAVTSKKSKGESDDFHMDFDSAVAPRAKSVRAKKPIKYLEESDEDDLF

For the compound `CC1(C)CC[C@]2(C)C[C@H](O)[C@]3(C)C(=CC[C@@H]4[C@@]5(C)CC[C@H](O)C(C)(C)[C@@H]5CC[C@]43C)[C@@H]2C1`, the result in test [1] was Active. Also, the result in test [2] was inactive. For the same compound, in test [3], the Activity result was “Dose-dependent effect” and the negative logarithm of the IC50 (pIC50) is 4.76.
Consider `C=C(C)[C@@H]1CC[C@]2(C)CC[C@]3(C)[C@H](CC[C@@H]4[C@@]5(C)CC[C@H](O)[C@](C)(CO)[C@@H]5CC[C@]43C)[C@H]12`, for which the result in test [2] was inactive. Besides, in test [4], the inhibition result is “inactive”.
In the case of `C=C(C)[C@@H]1CC[C@]2(C)CC[C@]3(C)[C@H](CC[C@@H]4[C@@]5(C)CC[C@H](O)C(C)(C)[C@@H]5CC[C@]43C)[C@@H]12` [LUPEOL], the outcome in test [1] was Active. The result in test [2] was inactive. Moreover, in test [3], the Activity entry is “Dose-dependent effect” and the negative logarithm of the IC50 (pIC50) was 4.98.
Take `CC1(C)CC[C@]2(C)C[C@H](O)[C@]3(C)C(=CC[C@@H]4[C@@]5(C)CC[C@H](O)[C@](C)(CO)[C@@H]5CC[C@]43C)[C@@H]2C1`: the outcome in test [1] was Active. The result in test [2] was inactive. Also, in test [3], the Activity entry is “Dose-dependent effect” and the negative logarithm of the IC50 (pIC50) is 4.41.
Turning to `C=C(C)[C@@H]1CC[C@]2(CO)CC[C@]3(C)[C@H](CC[C@@H]4[C@@]5(C)CC[C@H](O)C(C)(C)[C@@H]5CC[C@]43C)[C@@H]12` [BETULIN], the result in test [1] was Active. The result in test [2] was inactive. Further, in test [3], the Activity entry is “Dose-dependent effect” and the pIC50 is 4.41.
Regarding `CC1(C)CC[C@]2(C)CC[C@]3(C)C(=CC[C@@H]4[C@@]5(C)CC[C@H](O)[C@](C)(CO)[C@@H]5CC[C@]43C)[C@@H]2C1`, the result in test [2] was inactive. The inhibition in test [4] was 33%. Further, in test [3], the pIC50 is < 3.70.

One may read the pIC50 as the IC50 on a negative log10 scale, so that one unit is a factor of ten. One may read the inhibition as the drop in the measured response relative to a control, in per cent.
